These results are taken from patent publication US11026426B2, “Oxadiazole and phenol derivatives as antibacterial and/or herbicidal agents” (NORTHERN ILLINOIS RESEARCH FOUNDATION, priority 2017, dated 2021).

Like-named read-outs stand apart in the source and are kept apart here.

In general, IC50 refers to the concentration needed to halve the response being measured. By melting point is commonly meant the temperature, or range, at which the solid turns liquid.

The target of one series is Bt IspD (Burkholderia thailandensis, UniProt Q2SWT6). In kind it is binding.
Series [1] deals with T1, Mycobacterium tuberculosis IspD (MtIspD) (Mycobacterium tuberculosis, UniProt P9WKG9).
T1 sequence (P9WKG9 1-231): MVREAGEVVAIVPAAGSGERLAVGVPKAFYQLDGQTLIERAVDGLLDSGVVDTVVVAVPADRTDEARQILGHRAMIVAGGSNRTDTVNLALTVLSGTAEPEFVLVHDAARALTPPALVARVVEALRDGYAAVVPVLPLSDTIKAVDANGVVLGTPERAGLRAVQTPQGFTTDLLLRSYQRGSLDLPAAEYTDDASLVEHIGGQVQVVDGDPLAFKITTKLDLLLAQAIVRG
The experiment in a line: Thermal shift assay against MtIspD. The class given is binding.

Another series relates to Micrococcus luteus. Kind of series: Antibacterial preliminary screening ML. Further: key: 0 represents no inhibition; 3 is comparable to commercial antibiotic control. In kind it is cell-based. The settings on record: score 0-3.
The subject of another series is Escherichia coli. Kind of series: Antibacterial preliminary screening EC. Further: key: 0 represents no inhibition; 3 is comparable to commercial antibiotic control. The class given is cell-based. Conditions: score 0-3.
The subject of the next series is Mycobacterium smegmatis. Kind of series: Antibacterial preliminary screening MS. Further: key: 0 represents no inhibition; 3 is comparable to commercial antibiotic control. The class given is cell-based. Conditions: score 0-3.
For series [2], the system named is Burkholderia thailandensis. The class given is cell-based. The settings on record: preliminary screening, score 0-3.
Series [3] relates to Corynebacterium pseudodiphtheriae. Kind of series: Antibacterial preliminary screening CP.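 Further: 0 is no inhibition and 3 matches the commercial antibiotic control.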 In kind it is cell-based. The settings on record: score 0-3.
The target of a further series is LeIspE (Solanum lycopersicum, UniProt P93841). Kind of series: University of Hamburg photometric enzymatic inhibition assay LeIspE. The class given is biochemical, Lycopersicon esculentum. The settings on record: read-out: LeIspE IC50. Put shortly:
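Photometric coupled assay with pyruvate kinase/lactate dehydrogenase following NADH (460 μM). Mix: 100 mM Tris-HCl pH 8.0, 10 mM MgCl2, 1 mM DTT, 2.5 mM phosphoenolpyruvate, 2 mM ATP, 1 mM 4-diphosphocytidyl-2-C-methylerythritol, 1.1% DMSO, 2.4 mU IspE; incubated at 27° C.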

The subject of a further series is Pseudomonas aeruginosa. Kind of series: Antibacterial preliminary screening PA. Further: key: 0 represents no inhibition; 3 is comparable to commercial antibiotic control. In kind it is cell-based. The settings on record: score 0-3.
A further series deals with AtIspF (Arabidopsis thaliana, UniProt Q9CAK8). Kind of series: University of Hamburg photometric enzymatic inhibition assay AtIspF. The class given is biochemical. Conditions: read-out: AtIspF IC50. Summed up:
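Coupled photometric assay (CMP kinase/pyruvate kinase/lactate dehydrogenase, NADH consumption) with 2.4 mU AtIspF and 1 mM 4-diphosphocytidyl-2C-methylerythritol 2-phosphate, 2 mM ATP, in 100 mM Tris-HCl pH 8.0, 10 mM MgCl2, 1.1% DMSO. Monitored at 27 °C.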

Series [4] concerns the target Mycobacterium paratuberculosis IspD (MpIspD) (Mycolicibacterium paratuberculosis, UniProt Q743W5). Kind of series: Thermal shift assay against MpIspD. In kind it is binding. Conditions: MpIspD.
A further series addresses AtIspD (Arabidopsis thaliana, UniProt P69834). The experiment in a line: University of Hamburg photometric enzymatic inhibition assay AtIspD. The class given is biochemical. Conditions: read-out: AtIspD IC50. Summed up: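 Coupled photometric assay: 2.4 mU AtIspD with 1 mM (2R,3S)-2,3-dihydroxy-4-oxopentyl phosphate, 2.1 mM CTP, excess IspE (0.4 U), ATP, pyruvate kinase/lactate dehydrogenase and 460 μM NADH. Run in 100 mM Tris-HCl pH 8.0, 10 mM MgCl2, 1 mM DTT, 1.1% DMSO at 27 °C, monitored photometrically.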

The test system of the next series is Corynebacterium xerosis. Kind of series: Antibacterial preliminary screening CX. The settings on record: score 0-3. The class given is cell-based.
Another series has as its system Klebsiella pneumonia. Kind of series: Antibacterial preliminary screening KP. In kind it is cell-based. The settings on record: score 0-3.
The target of series [5] is Lycopersicon esculentum IspE (LeIspE) (Solanum lycopersicum, UniProt P93841). The experiment in a line: Thermal shift assay against LeIspE. In kind it is binding.
The subject of the next series is Bacillus cereus. The experiment in a line: Antibacterial preliminary screening BC. The class given is cell-based. Conditions: score 0-3.
Another series relates to lettuce seeds. Kind of series: Lettuce leaf assay. In kind it is in vivo. More on the design: key: 0 (no effect); 5(complete inhibition or bleaching). The settings on record: ranking 0-5. Put shortly:
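Qualitative assay: compounds in volatile organic solvent applied to filter paper in a petri dish, solvent evaporated, lettuce seeds and 5 mL water added to give test concentrations. Germination, root development and leaf bleaching scored days 3 and 4, ranked 0 (no effect) to 5 (complete inhibition or bleaching).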

For another series, the target named is E. coli IspD (Escherichia coli, UniProt Q46893). Kind of series: IspD assay (Washington University, EnzCheck phosphate) EcIspD. In kind it is biochemical. Conditions: up to 100 μM; bar graph at 12.5 and 100 μM. How it is done: Compounds were tested against IspD from Escherichia coli and Plasmodium falciparum. The assay measured activity through monitoring phosphate levels released by IspD enzyme over time using conditions published previously. The assay utilized the EnzCheck phosphate assay kit to quantify phosphate released by IspD. Reactions were done in a 96-well plate with each well containing a final volume of 50 μL. Concentrations of reagents were as follows: 100 mM NaCl, 25 mM Tris at pH 7.0, 7.5 mM MgCl2, 1 mM dithiothreitol, 1 U/mL purine nucleoside phosphorylase, and 0.1 U/mL yeast inorganic pyrophosphatase, 50 μM CTP, 500 μM MEP, 0.1% DMSO, and 0.2 mM 2-Amino-6-mercapto-7-methyl puring riboside. Reactions with EclspD used 2 nM EclspD and reactions with PfIspD used 50 nM PfIspD. Reactions involved pre-warming the enzyme and buffers to 37° C. with different inhibitor concentrations followed by the addition of the purified MEP substrate. Absorbance was measured at 360 nm over time and values were used to create regression analysis curves from three trials and values were converted to (μM MEP)(μM enzyme)^−1s^−1 using a standard phosphate curve. These values were then used to identify percent activity compared to enzyme activity without the inhibitor. Results are indicated.

For another series, the target named is P. falciparum IspD (Plasmodium falciparum, UniProt Q8I273). The experiment in a line: IspD assay (Washington University, EnzCheck phosphate) PfIspD. In kind it is biochemical.
Series [6] concerns the target Arabidopsis thaliana IspD (Arabidopsis thaliana, UniProt P69834). Conditions: read-out: AtIspD IC50, cited from earlier work.

Chain of Bt IspD (Q2SWT6 whole entry): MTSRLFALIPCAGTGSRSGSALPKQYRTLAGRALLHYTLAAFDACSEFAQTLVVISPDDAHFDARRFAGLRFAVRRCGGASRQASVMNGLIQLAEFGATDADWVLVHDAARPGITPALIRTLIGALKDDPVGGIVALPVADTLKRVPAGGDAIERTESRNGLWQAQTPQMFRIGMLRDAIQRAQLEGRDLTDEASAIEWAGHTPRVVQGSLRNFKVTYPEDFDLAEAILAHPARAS
Chain of Lycopersicon esculentum IspE (LeIspE) (P93841 89-401): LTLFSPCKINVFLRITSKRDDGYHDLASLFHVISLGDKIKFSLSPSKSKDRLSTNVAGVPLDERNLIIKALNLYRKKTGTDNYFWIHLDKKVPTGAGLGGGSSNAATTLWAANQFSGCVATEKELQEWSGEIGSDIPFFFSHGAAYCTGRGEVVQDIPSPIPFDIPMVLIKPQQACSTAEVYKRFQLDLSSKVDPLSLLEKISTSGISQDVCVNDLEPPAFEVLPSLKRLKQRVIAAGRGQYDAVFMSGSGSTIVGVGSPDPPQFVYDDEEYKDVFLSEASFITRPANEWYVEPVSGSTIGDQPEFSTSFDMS
Chain of LeIspE (P93841 89-401): as above
Chain of AtIspF (Q9CAK8 53-231): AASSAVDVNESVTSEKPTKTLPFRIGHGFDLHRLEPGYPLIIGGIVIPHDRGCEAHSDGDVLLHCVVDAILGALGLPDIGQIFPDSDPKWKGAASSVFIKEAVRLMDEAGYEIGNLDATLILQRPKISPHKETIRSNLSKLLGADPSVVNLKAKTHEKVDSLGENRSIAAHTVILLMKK
Chain of AtIspD (P69834 62-302): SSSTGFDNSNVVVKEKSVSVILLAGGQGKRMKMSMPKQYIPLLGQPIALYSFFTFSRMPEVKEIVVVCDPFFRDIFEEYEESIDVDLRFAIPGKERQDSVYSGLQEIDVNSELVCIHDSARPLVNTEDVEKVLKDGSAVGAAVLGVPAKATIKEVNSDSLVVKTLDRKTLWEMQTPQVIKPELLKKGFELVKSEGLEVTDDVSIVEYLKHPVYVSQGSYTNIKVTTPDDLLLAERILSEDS
Chain of E. coli IspD (Q46893 whole entry): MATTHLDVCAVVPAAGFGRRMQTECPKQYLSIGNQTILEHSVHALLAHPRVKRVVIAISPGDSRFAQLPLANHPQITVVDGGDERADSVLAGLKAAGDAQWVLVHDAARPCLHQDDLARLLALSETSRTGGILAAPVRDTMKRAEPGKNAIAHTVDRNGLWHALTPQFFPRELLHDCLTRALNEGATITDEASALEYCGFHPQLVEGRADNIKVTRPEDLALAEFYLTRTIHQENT
Chain of P. falciparum IspD (Q8I273 entry or part of it): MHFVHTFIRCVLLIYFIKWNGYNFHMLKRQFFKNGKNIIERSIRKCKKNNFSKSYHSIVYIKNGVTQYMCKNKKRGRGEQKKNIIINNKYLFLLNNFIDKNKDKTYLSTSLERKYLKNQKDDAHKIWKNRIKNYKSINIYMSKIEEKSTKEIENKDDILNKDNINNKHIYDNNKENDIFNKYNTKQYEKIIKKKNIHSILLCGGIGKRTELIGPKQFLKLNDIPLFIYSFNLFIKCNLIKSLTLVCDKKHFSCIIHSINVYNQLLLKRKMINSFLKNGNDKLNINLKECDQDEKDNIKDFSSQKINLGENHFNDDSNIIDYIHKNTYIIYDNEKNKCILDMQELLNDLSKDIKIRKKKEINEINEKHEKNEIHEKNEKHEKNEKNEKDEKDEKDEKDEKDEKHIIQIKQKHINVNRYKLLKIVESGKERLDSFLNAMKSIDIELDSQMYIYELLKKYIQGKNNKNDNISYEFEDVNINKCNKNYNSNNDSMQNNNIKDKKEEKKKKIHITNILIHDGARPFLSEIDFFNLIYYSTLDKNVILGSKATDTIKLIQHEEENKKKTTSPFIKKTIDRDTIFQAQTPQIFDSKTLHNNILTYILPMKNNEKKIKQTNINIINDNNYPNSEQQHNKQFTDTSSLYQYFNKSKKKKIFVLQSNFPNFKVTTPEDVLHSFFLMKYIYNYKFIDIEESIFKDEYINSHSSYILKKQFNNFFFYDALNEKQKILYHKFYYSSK
Chain of Arabidopsis thaliana IspD (P69834 62-302): as the sequence (P69834 62-302) above
Chain of Mycobacterium paratuberculosis IspD (MpIspD) (Q743W5 whole entry): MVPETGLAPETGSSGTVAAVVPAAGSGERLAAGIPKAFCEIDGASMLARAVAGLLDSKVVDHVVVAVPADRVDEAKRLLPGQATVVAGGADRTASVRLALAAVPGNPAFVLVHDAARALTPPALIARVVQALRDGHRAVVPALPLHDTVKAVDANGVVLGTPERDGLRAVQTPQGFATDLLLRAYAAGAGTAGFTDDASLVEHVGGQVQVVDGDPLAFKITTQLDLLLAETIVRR
Method for Bt IspD: ITC studies were performed with a Microcal VP-ITC titration calorimeter (Malvern Instruments). Proteins were dialyzed overnight against four liters of buffer (20 mM sodium phosphate, 150 mM NaCl, pH 7.4). Compounds were dissolved in DMSO and brought to concentration with the dialysis buffer, with a maximum DMSO concentration of 10% by volume, and centrifuged at 10,000 RPM for 10 minutes. DMSO concentrations were matched between the protein and ligand. The dialysis buffer was used for all sample dilutions to ensure buffers matching between the titrant and titrate, thus minimizing the excess heat due to buffer mismatch. The Pace method was utilized for the determination of the extinction coefficients at 280 nm for Ec IspD (30,940 M^−1 cm^−1) and Bt IspD (41,940 M^−1 cm^−1). Cytidine triphosphate's extinction coefficient was 9,100 M^−1 cm^−1. The absorbance values of protein and CTP solutions were determined using the NanoDrop (in triplicate). All other compound concentrations were determined by dry weight. ITC experiments were performed with IspD in the cell and ligand in the syringe, which is at 100 times the concentration of the sample in the cell due to the low predicted affinities for IspD.
The initial injection volume was 2 μL (omitted) followed by 27 10 μL injections, every 240 seconds. Samples were run at 25° C., at pH 7.4, with a stirring speed of 307 RPM. Dilution runs were performed to allow determination of background heats caused by solution mismatch and instrument noise. Dilution runs were performed with ligand (at the same concentration as in the experiment run) in the syringe titrated into the dialysis buffer in the cell. Data were fit using OriginPro 7 with the ITC add-on by the manufacturer.
ITC studies were performed to observe the dissociation constant along with thermodynamic properties of the reactant CTP with Bt IspD.

Consider `Nc1ccn([C@@H]2O[C@H](COP(=O)(O)OP(=O)(O)OP(=O)(O)O)[C@@H](O)[C@H]2O)c(=O)n1` [CTP, Cytidine triphosphate], for which, on Bt IspD, the “KD app (ITC, words)” value was “in the millimolar range” and the “entropic contribution −TΔS (ITC)” value came out at 5.6±1.838. The “ΔH° (ITC)” value on Bt IspD (stoichiometry fixed at two CTPs per dimer) is -6.991 ± 1.749 kcal/mol.
`FC(F)(F)c1nnc(-c2cc3ccccc3[nH]2)o1` [HGN-211, 2-(1H-indol-2-yl)-5-(trifluoromethyl)-1,3,4-oxadiazole] registered a melting point of 182 to 184 °C. Also, in series [1], the “MtIspD melting point change” value amounted to 1.3 °C and the MtIspD melting temp was 49.3 °C. The ML score in the series on Micrococcus luteus was 0. The molecule further gave an EC score with Escherichia coli of 0. Also, the MS score in the series on Mycobacterium smegmatis is 0. Further, in series [2], the BT score amounted to 0. The CP score in series [3] was determined as 0. Further, the IC50 at LeIspE was more than 1000 µM. In addition, the PA score with Pseudomonas aeruginosa was 0. Further, the IC50 on AtIspF was more than 1000 µM. For the same molecule, the “increase in melting point over HGN-207” value in series [4] was 0.3 °C. Also, the IC50 on AtIspD was more than 1000 µM. For the same molecule, in the series on Corynebacterium xerosis, the CX score is reported as 0. The KP score in the series with Klebsiella pneumonia amounted to 0. For the same molecule, in series [5], the “LeIspE melting point change” value was −0.75 °C and the LeIspE melting temp was found to be 48.75 °C. Moreover, the BC score in the series on Bacillus cereus is on record as 0. In addition, in the series on lettuce seeds (0.5 mM), the Bleaching is on record as 0, the Germination stood at 1 and the “Root Dev.” value was 0. In addition, in the series with lettuce seeds (1.0 mM), the Bleaching is on record as 0, the Germination was found to be 2 and the “Root Dev.” value stood at 0.
With `Clc1ccc(-c2nnc(-c3cc4ccccc4[nH]3)o2)cc1` [HGN-213, 2-(4-chlorophenyl)-5-(1H-indol-2-yl)-1,3,4-oxadiazole], the melting point lay in the range of 265 to 270 °C. Further, in series [1], the “MtIspD melting point change” value turned out to be 0.8 °C and the MtIspD melting temp turned out to be 48.8 °C. This molecule also yielded an ML score in the series on Micrococcus luteus of 0. Besides, in the series with Escherichia coli, the EC score came to 0. The MS score with Mycobacterium smegmatis worked out at 0. Further, on E. coli IspD, the “inhibition of E. coli IspD activity” value is on record as “some activity”. The molecule further showed a BT score in [2] of 0. In [3], this molecule yielded a CP score of 0. The IC50 at LeIspE turned out to be 326 ± 29 µM. The IC50 against P. falciparum IspD is approximately 100 µM. For the same molecule, the PA score in the series on Pseudomonas aeruginosa turned out to be 0. For the same molecule, the IC50 at AtIspF is more than 1000 µM. In addition, on AtIspD, the half-inhibitory concentration (IC50) turned out to be 490 µM. Further, the CX score with Corynebacterium xerosis was found to be 0. Further, the KP score with Klebsiella pneumonia was found to be 0. For the same molecule, in series [5], the “LeIspE melting point change” value is −2.00 °C and the LeIspE melting temp was 47.50 °C. The molecule further gave a BC score with Bacillus cereus of 0. Further, in the series with lettuce seeds (0.2 mM), the Bleaching stood at 0, the Germination came to 1 and the “Root Dev.” value amounted to 0.
`FC(F)(F)c1ccc(-c2nnc(-c3cc4ccccc4[nH]3)o2)cc1` [HGN-214, 2-(1H-indol-2-yl)-5-(4-(trifluoromethyl)phenyl)-1,3,4-oxadiazole] showed a melting point of 258 to 260 °C. Further, in series [1], the MtIspD melting temp came out at 49.8 °C. Also, in the series with Micrococcus luteus, the ML score amounted to 0. The molecule further gave an EC score with Escherichia coli of 0. The same molecule showed an MS score in the series on Mycobacterium smegmatis of 0. Also, the “inhibition of E. coli IspD activity” value on E. coli IspD is on record as “some activity”. The BT score in series [2] is given as 0. The molecule further showed a CP score in series [3] of 0. For the same molecule, the IC50 on LeIspE is 269 ± 23 µM. On P. falciparum IspD, this molecule gave an IC50 of approximately 100 µM. Moreover, the PA score in the series on Pseudomonas aeruginosa came to 0. For the same molecule, the IC50 on AtIspF is more than 1000 µM. At AtIspD, the IC50 is more than 1000 µM. In the series with Corynebacterium xerosis, the CX score is 0. Moreover, the KP score in the series with Klebsiella pneumonia came out at 0. Moreover, in [5], the “LeIspE melting point change” value is −1.00 °C and the LeIspE melting temp worked out at 48.50 °C. The same molecule yielded a BC score in the series with Bacillus cereus of 0. In the series with lettuce seeds (0.2 mM), the Bleaching is 0, the Germination came to 0 and the “Root Dev.” value is given as 0. Moreover, in the series with lettuce seeds (0.5 mM), the Bleaching was determined as 0, the Germination came out at 1 and the “Root Dev.” value is given as 0. For the same molecule, in the series on lettuce seeds (1.0 mM), the Bleaching worked out at 0, the Germination was found to be 3 and the “Root Dev.” value turned out to be 0.
`c1ccc2[nH]c(-c3nnc(C4CCCC4)o3)cc2c1` [HGN-252, 2-cyclopentyl-5-(1H-indol-2-yl)-1,3,4-oxadiazole] returned a melting point of 150 to 154 °C. Moreover, the MtIspD melting temp in series [1] is 49.5 °C. For the same molecule, the ML score in the series on Micrococcus luteus worked out at 0. In the series with Escherichia coli, this molecule had an EC score of 0. The molecule also showed an MS score in the series on Mycobacterium smegmatis of 0. Further, the “inhibition of E. coli IspD activity” value on E. coli IspD is recorded as “significant activity”. In [2], this molecule yielded a BT score of 0. The molecule also came in with a CP score in series [3] of 0. Besides, the IC50 on LeIspE was more than 1000 µM. Also, in the series on Pseudomonas aeruginosa, the PA score was determined as 0. For the same molecule, at AtIspF, the IC50 is more than 1000 µM. Moreover, on AtIspD, the IC50 is more than 1000 µM. The molecule also gave a CX score in the series on Corynebacterium xerosis of 0. In the series on Klebsiella pneumonia, the KP score is on record as 0. For the same molecule, in [5], the “LeIspE melting point change” value was −2.50 °C and the LeIspE melting temp came to 47.00 °C. The molecule also came in with a BC score with Bacillus cereus of 0. In addition, in the series with lettuce seeds (0.5 mM), the Bleaching is 0, the Germination came out at 1 and the “Root Dev.” value is on record as 0. Also, in the series on lettuce seeds (1.0 mM), the Bleaching is reported as 0, the Germination is on record as 2 and the “Root Dev.” value is on record as 0.
For the molecule `Oc1c(Br)cc(Br)cc1-c1[nH]c(Br)c(Br)c1Br` [pentabromopseudilin], the values for the IC50 in series [6] (with 40 μM Cd2+ added) and in series [6] (without a metal added) were 1.4 ± 0.2 µM and 13 ± 2 µM, respectively.
